The record followed here is patent US11066414B2, “Cot modulators and methods of use thereof” (Gilead Sciences, Inc., priority 2015, dated 2021).

A word on the IC50: it is the concentration that gives 50% inhibition.

In the first experiment the target is Human Cot (Homo sapiens (Human), UniProt P41279). Description: High Throughput Cot Biochemical Assay. Conditions: IC50 HTRF, Cot HTRF (TR-FRET) biochemical assay. (In general: Time-resolved FRET reads energy transfer from a long-lived donor to a nearby acceptor.)
Chain of Human Cot (P41279 30-397): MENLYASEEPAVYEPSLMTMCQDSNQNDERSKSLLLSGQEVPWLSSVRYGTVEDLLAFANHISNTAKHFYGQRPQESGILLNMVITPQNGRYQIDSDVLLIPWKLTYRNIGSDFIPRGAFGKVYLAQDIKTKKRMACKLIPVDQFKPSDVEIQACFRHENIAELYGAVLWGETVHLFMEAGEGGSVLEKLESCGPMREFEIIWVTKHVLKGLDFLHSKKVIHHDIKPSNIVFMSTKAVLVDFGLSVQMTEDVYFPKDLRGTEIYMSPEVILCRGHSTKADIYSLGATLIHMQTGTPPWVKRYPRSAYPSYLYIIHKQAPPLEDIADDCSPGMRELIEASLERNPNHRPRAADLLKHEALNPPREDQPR
`N#Cc1cnc2c(Cl)cc(N[C@@H](c3cccnc3)c3cn(CCO)nn3)cc2c1Nc1ccc(F)c(Cl)c1` [Example 336, (S)-8-chloro-4-((3-chloro-4-fluoro-phenyl)amino)-6-(((1-(2-hydroxyethyl)-1H-1,2,3-triazol-4-yl)(pyridin-3-yl)methyl)amino)quinoline-3-carbonitrile] yielded a concentration for half-maximal inhibition (IC50) of 2 nM.

In the case of `COCCn1cc([C@@H](Nc2cc(Cl)c3ncc(C#N)c(Nc4ccc(F)c(Cl)c4)c3c2)c2cc(C#N)cs2)nn1` [Example 337, (R)-8-chloro-4-((3-chloro-4-fluorophenyl)amino)-6-(((4-cyanothiophen-2-yl)(1-(2-methoxy-ethyl)-1H-1,2,3-triazol-4-yl)methyl)amino)quinoline-3-carbonitrile], the 50% inhibitory concentration (IC50) was 16 nM.

As to `N#Cc1cnc2c(Cl)cc(N[C@@H](c3cscn3)c3cn(CCO)nn3)cc2c1Nc1ccc(F)c(Cl)c1` [Example 356, (S)-8-chloro-4-((3-chloro-4-fluorophenyl)amino)-6-(((1-(2-hydroxyethyl)-1H-1,2,3-triazol-4-yl)(thiazol-4-yl)methyl)amino)-quinoline-3-carbonitrile], the IC50 worked out at 2 nM.

For the compound `CCN1CCC(n2cc([C@@H](Nc3cc(Cl)c4ncc(C#N)c(Nc5ccc(F)c(Cl)c5)c4c3)c3ccc(C(F)(F)F)s3)nn2)CC1` [Example 365, (R)-8-chloro-4-((3-chloro-4-fluorophenyl)amino)-6-(((1-(1-ethylpiperidin-4-yl)-1H-1,2,3-triazol-4-yl)(5-(trifluoromethyl)thiophen-2-yl)methyl)amino)quinoline-3-carbonitrile], the IC50 is 38 nM.

As for `CC(C)(C)OC(=O)N1CCC(n2cc([C@@H](Nc3cc(Cl)c4ncc(C#N)c(Nc5ccc(F)c(Cl)c5)c4c3)c3cncs3)nn2)CC1` [Example 384, tert-butyl (R)-4-(4-(((8-chloro-4-((3-chloro-4-fluorophenyl)amino)-3-cyanoquinolin-6-yl)amino)(thiazol-5-yl)methyl)-1H-1,2,3-triazol-1-yl)piperidine-1-carboxylate], the concentration for half-maximal inhibition (IC50) was 153 nM.

Take `N#Cc1cnc2c(Cl)cc(N[C@H](c3cn(C4CCNCC4)nn3)c3ccc(Cl)s3)cc2c1Nc1ccc(F)c(Cl)c1` [Example 386, (R)-8-chloro-4-((3-chloro-4-fluoro-phenyl)amino)-6-(((5-chlorothiophen-2-yl)(1-(piperidin-4-yl)-1H-1,2,3-triazol-4-yl)methyl)amino)quinoline-3-carbonitrile]: the IC50 was found to be 36 nM.

Compound `N#Cc1cnc2c(Cl)cc(N[C@H](c3cn(C4CCNCC4)nn3)c3sccc3Cl)cc2c1Nc1ccc(F)c(Cl)c1` [Example 387, (R)-8-chloro-4-((3-chloro-4-fluoro-phenyl)amino)-6-(((3-chlorothiophen-2-yl)(1-(piperidin-4-yl)-1H-1,2,3-triazol-4-yl)methyl)amino)quinoline-3-carbonitrile] returned an IC50 of 18 nM.

Regarding `N#Cc1cnc2c(Cl)cc(N[C@H](c3cn(C4CCNCC4)nn3)c3cccs3)cc2c1Nc1ccc(F)c(Cl)c1` [Example 388, (R)-8-chloro-4-((3-chloro-4-fluoro-phenyl)amino)-6-(((1-(piperidin-4-yl)-1H-1,2,3-triazol-4-yl)(thiophen-2-yl)methyl)amino)quinoline-3-carbonitrile], the IC50 was 10 nM.

Consider `CCN1CCC(n2cc([C@@H](Nc3cc(Cl)c4ncc(C#N)c(Nc5ccc(F)c(Cl)c5)c4c3)c3ccsc3)nn2)CC1` [Example 392, (S)-8-chloro-4-((3-chloro-4-fluoro-phenyl)amino)-6-(((1-(1-ethylpiperidin-4-yl)-1H-1,2,3-triazol-4-yl)(thiophen-3-yl)methyl)amino)quinoline-3-carbonitrile], for which the midpoint of inhibition, the IC50, lay at 3 nM.

Still in this experiment, the particulars now being: read-out: IC50 HTRF; Cot HTRF (TR-FRET) biochemical assay.
As for `Cn1cc([C@H](Nc2cc(Cl)c3ncc(C#N)c(Nc4ccc(F)c(Cl)c4)c3c2)c2cccnc2)nn1` [Example 343, (R)-8-chloro-4-((3-chloro-4-fluorophenyl)amino)-6-(((1-methyl-1H-1,2,3-triazol-4-yl)(pyridin-3-yl)methyl)amino)quinoline-3-carbonitrile], the IC50 amounted to 504 nM.
